Measurements from patent publication US11649237B2, “Substituted imidazo[1,5-a]pyrazines for IRE1 inhibition” (Optikira LLC, priority 2017, dated 2023).

These compounds were tested on XBP-1 splicing in ARPE-19 cells or apoptosis of INS-1 cells expressing mIRE-1 (assay: Cellular assay (XBP1 splicing assay or apoptosis assay)). Conditions: data are for the XBP1 splicing assay or the apoptosis assay (not specified per compound).
Type: cell-based
Method: ARPE-19 cells stably expressing XBP-1 (a.a. 1-376) with nano-luciferase gene sequence linked so it is in frame when XBP-1 is spliced, were cultured in F12 media, 10% FBS, 0.044% sodium bicarbonate, 150 μg/ml hygromycin B and seeded for assays at 5,000 cells in 384 well plates in culture media without hygromycin B and incubated at 37° C./5% CO2. […] After further incubation of 30 minutes thapsigargin was added (final concentration 150 nM) and then another 4 hour incubation. A NanoLuc luciferase assay (Promega) was used according to the manufacturer's instructions to detect the luciferase and luminescence measured on a luminometer (EnVision, PerkinElmer).
Doxycycline (final concentration 100 nM) was added and plates incubated for a further 72 hours. To determine the proportion of apoptotic cells Hoechst 33342 (final concentration 10 μg/mL) was added, then after 30 minutes incubation cells imaged and analyzed on an InCell high content imager.
In the case of `CNC1CC=C(c2cnc(N)c3c(-c4ccc(NC(=O)Nc5cc(F)cc(OC)c5)cc4F)nc(C(C)C)n23)CC1` (centres unmarked) [Example 146, 1-(4-(8-amino-3-isopropyl-5-(4-(methylamino)cyclohex-1-en-1-yl)imidazo[1,5-a]pyrazin-1-yl)-3-fluorophenyl)-3-(3-fluoro-5-methoxyphenyl)urea], the IC50 is reported as 240 nM. `CNC1CC=C(c2cnc(N)c3c(-c4ccc(NC(=O)Nc5cccc(OC)c5)c5ccccc45)nc(C(C)C)n23)CC1` (centres unmarked) [Example 141, 1-(4-(8-amino-3-isopropyl-5-(4-(methylamino)cyclohex-1-en-1-yl)imidazo[1,5-a]pyrazin-1-yl)naphthalen-1-yl)-3-(3-methoxyphenyl)urea] was tested, and the IC50 was 59 nM. `CNC1CC=C(c2cnc(N)c3c(-c4ccc(NS(=O)(=O)c5cc(C)ccc5Cl)c5ccccc45)nc(C(C)C)n23)CC1` (centres unmarked) [Example 219, N-(4-{8-amino-5-[4-(methylamino)cyclohex-1-en-1-yl]-3-(propan-2-yl)imidazo[1,5-a]pyrazin-1-yl}naphthalen-1-yl)-2-chloro-5-methylbenzene-1-sulfonamide] showed an IC50 of 20 nM. With `CNC1CC=C(c2cnc(N)c3c(-c4ccc(NC(=O)Nc5cccnc5)c5ccccc45)nc(C)n23)CC1` (centres unmarked) [Example 147, 1-(4-(8-amino-3-methyl-5-(4-(methylamino)cyclohex-1-en-1-yl)imidazo[1,5-a]pyrazin-1-yl)naphthalen-1-yl)-3-(pyridin-3-yl)urea] the IC50 was 3100 nM. Compound `CC(C)c1nc(-c2ccc(NS(=O)(=O)c3ccccc3Cl)c(F)c2)c2c(N)ncc(C3=CCC(N(C)CCF)CC3)n12` (centres unmarked) [Example 230, N-(4-(8-amino-5-(4-((2-fluoroethyl)(methyl)amino)cyclohex-1-en-1-yl)-3-isopropylimidazo[1,5-a]pyrazin-1-yl)-2-fluorophenyl)-2-chlorobenzenesulfonamide] has an IC50 of 19 nM. Work on `CNC1CC=C(c2cnc(N)c3c(-c4ccc(Cc5nc6cccc(C)c6[nH]5)c5ccccc45)nc(C(C)C)n23)CC1` (centres unmarked) [Example 156, 3-Isopropyl-1-(4-((7-methyl-1H-benzo[d]imidazol-2-yl)methyl)naphthalen-1-yl)-5-(4-(methylamino)cyclohex-1-en-1-yl)imidazo[1,5-a]pyrazin-8-amine] yielded an IC50 of 16 nM. For `CNC1CC=C(c2cnc(N)c3c(-c4ccc(NC(=O)Nc5ccc6c(c5)OCCO6)cc4F)nc(C(C)C)n23)CC1` (centres unmarked) [Example 125, 1-(4-(8-amino-3-isopropyl-5-(4-(methylamino)cyclohex-1-en-1-yl)imidazo[1,5-a]pyrazin-1-yl)-3-fluorophenyl)-3-(2,3-dihydrobenzo[b][1,4]dioxin-6-yl)urea], the IC50 was 300 nM. In the case of `CNC1CC=C(c2cnc(N)c3c(-c4ccc(NC(=O)Nc5ccc(OC)c(OC)c5)c5ccccc45)nc(C(C)C)n23)CC1` (centres unmarked) [Example 143, 1-(4-(8-amino-3-isopropyl-5-(4-(methylamino)cyclohex-1-en-1-yl)imidazo[1,5-a]pyrazin-1-yl)naphthalen-1-yl)-3-(3,4-dimethoxyphenyl)urea], the IC50 is reported as 210 nM. `CNC1CC=C(c2cnc(N)c3c(-c4ccc(CC(=O)Nc5ccccn5)c5ccccc45)nc(C(C)C)n23)CC1` (centres unmarked) [Example 68, 2-(4-(8-amino-3-isopropyl-5-(4-(methylamino)cyclohex-1-en-1-yl)imidazo[1,5-a]pyrazin-1-yl)naphthalen-1-yl)-N-(pyridin-2-yl)acetamide] gave an IC50 of 430 nM. Work on `Cc1cccc2nc(Cc3ccc(-c4nc(C(C)C)n5c(CN6CCNCC6)cnc(N)c45)c4ccccc34)[nH]c12` [Example 37, 3-isopropyl-1-(4-((7-methyl-1H-benzo[d]imidazol-2-yl)methyl)naphthalen-1-yl)-5-(piperazin-1-ylmethyl)imidazo[1,5-a]pyrazin-8-amine] yielded an IC50 of 320 nM. For `CNC1CC=C(c2cnc(N)c3c(-c4cccc5c(NC(=O)Nc6cccc(C(F)(F)F)c6)cccc45)nc(C(C)C)n23)CC1` (centres unmarked) [Example 124, 1-(5-(8-amino-3-isopropyl-5-(4-(methylamino)cyclohex-1-en-1-yl)imidazo[1,5-a]pyrazin-1-yl)naphthalen-1-yl)-3-(3-(trifluoromethyl)phenyl)urea], the IC50 was 430 nM. With `CNC1CC=C(c2cnc(N)c3c(-c4ccc(NC(=O)Nc5cccc(C#N)c5)c5ccccc45)nc(C(C)C)n23)CC1` (centres unmarked) [Example 142, 1-(4-(8-amino-3-isopropyl-5-(4-(methylamino)cyclohex-1-en-1-yl)imidazo[1,5-a]pyrazin-1-yl)naphthalen-1-yl)-3-(3-cyanophenyl)urea] the IC50 was 94 nM. `CNC1CC=C(c2cnc(N)c3c(-c4ccc(NC(=O)Nc5cncc(F)c5)cc4F)nc(C(C)C)n23)CC1` (centres unmarked) [Example 149, 1-(4-(8-amino-3-isopropyl-5-(4-(methylamino)cyclohex-1-en-1-yl)imidazo[1,5-a]pyrazin-1-yl)-3-fluorophenyl)-3-(5-fluoropyridin-3-yl)urea] gave an IC50 of 780 nM. `CC(C)c1nc(-c2ccc(NS(=O)(=O)c3ccccc3Cl)c(F)c2)c2c(N)ncc(C3=CCC(O)CC3)n12` (centres unmarked) [Example 225, N-(4-(8-amino-5-(4-hydroxycyclohex-1-en-1-yl)-3-isopropylimidazo[1,5-a]pyrazin-1-yl)-2-fluorophenyl)-2-chlorobenzenesulfonamide] showed an IC50 of 250 nM. With `CNC1CC=C(c2cnc(N)c3c(-c4ccc(NC(=O)Nc5ccncc5)c5ccccc45)nc(C(C)C)n23)CC1` (centres unmarked) [Example 144, 1-(4-(8-amino-3-isopropyl-5-(4-(methylamino)cyclohex-1-en-1-yl)imidazo[1,5-a]pyrazin-1-yl)naphthalen-1-yl)-3-(pyridin-4-yl)urea] the IC50 was 490 nM. Work on `CNC1CC=C(c2cnc(N)c3c(-c4ccc(NS(=O)(=O)Cc5ccccc5Cl)c(F)c4)nc(C(C)C)n23)CC1` (centres unmarked) [Example 169, N-(4-(8-Amino-3-isopropyl-5-(4-(methylamino)cyclohex-1-en-1-yl)imidazo[1,5-a]pyrazin-1-yl)-2-fluorophenyl)-1-(2-chlorophenyl)methanesulfonamide] yielded an IC50 of 31 nM. With `CNC1CC=C(c2cnc(N)c3c(-c4ccc(NC(=O)Nc5ccsc5)c5ccccc45)nc(C(C)C)n23)CC1` (centres unmarked) [Example 150, 1-(4-(8-amino-3-isopropyl-5-(4-(methylamino)cyclohex-1-en-1-yl)imidazo[1,5-a]pyrazin-1-yl)naphthalen-1-yl)-3-(thiophen-3-yl)urea] the IC50 was 90 nM. With `CNC1CC=C(c2cnc(N)c3c(-c4ccc(NC(=O)Nc5ccc6c(c5)OCCO6)c5ccccc45)nc(C(C)C)n23)CC1` (centres unmarked) [Example 140, 1-(4-(8-amino-3-isopropyl-5-(4-(methylamino)cyclohex-1-en-1-yl)imidazo[1,5-a]pyrazin-1-yl)naphthalen-1-yl)-3-(2,3-dihydrobenzo[b][1,4]dioxin-6-yl)urea] the IC50 was 78 nM. For `CC(C)c1nc(-c2ccc(NS(=O)(=O)Cc3ccccc3Cl)c(F)c2)c2c(N)ncc(CN3CCNCC3)n12` [Example 36, N-(4-(8-amino-3-isopropyl-5-(piperazin-1-ylmethyl)imidazo[1,5-a]pyrazin-1-yl)-2-fluorophenyl)-1-(2-chlorophenyl)methanesulfonamide], the IC50 was 1530 nM. `CCc1nc(-c2ccc(NC(=O)Nc3cccc(C(F)(F)F)c3)c3ccccc23)c2c(N)ncc(CN3CCNCC3)n12` [Example 20, 3-{4-[8-amino-3-ethyl-5-(piperazin-1-ylmethyl)imidazo[1,5-a]pyrazin-1-yl]naphthalen-1-yl}-1-[3-(trifluoromethyl)phenyl]urea] showed an IC50 of 470 nM. `CNC1CC=C(c2cnc(N)c3c(-c4ccc(NS(=O)(=O)c5cc(C)ccc5F)c(F)c4)nc(C(C)C)n23)CC1` (centres unmarked) [Example 218, N-(4-{8-amino-5-[4-(methylamino)cyclohex-1-en-1-yl]-3-(propan-2-yl)imidazo[1,5-a]pyrazin-1-yl}-2-fluorophenyl)-2-fluoro-5-methylbenzene-1-sulfonamide] was tested, and the IC50 was 25 nM. With `CNC1CC=C(c2cnc(N)c3c(-c4ccc(NC(=O)Nc5ccccc5F)c5ccccc45)nc(C(C)C)n23)CC1` (centres unmarked) [Example 152, 1-(4-(8-amino-3-isopropyl-5-(4-(methylamino)cyclohex-1-en-1-yl)imidazo[1,5-a]pyrazin-1-yl)naphthalen-1-yl)-3-(2-fluorophenyl)urea] the IC50 was 100 nM. In the case of `CNC1CC=C(c2cnc(N)c3c(-c4cccc5c(CC(=O)Nc6ccccc6)cccc45)nc(C(C)C)n23)CC1` (centres unmarked) [Example 82, 2-(5-(8-amino-3-isopropyl-5-(4-(methylamino)cyclohex-1-en-1-yl)imidazo[1,5-a]pyrazin-1-yl)naphthalen-1-yl)-N-phenylacetamide], the IC50 is reported as 400 nM. Work on `CC(C)c1nc(-c2ccc(NS(=O)(=O)Cc3ccccc3Cl)c(F)c2)c2c(N)ncc(C3=CCC(NC4COC4)CC3)n12` (centres unmarked) [Example 227, N-(4-(8-amino-3-isopropyl-5-(4-(oxetan-3-ylamino)cyclohex-1-en-1-yl)imidazo[1,5-a]pyrazin-1-yl)-2-fluorophenyl)-1-(2-chlorophenyl)methanesulfonamide] yielded an IC50 of 87 nM. `CNC1CC=C(c2cnc(N)c3c(-c4ccc(NS(=O)(=O)c5cc(Cl)ccc5Cl)cc4F)nc(C(C)C)n23)CC1` (centres unmarked) [Example 195, N-(4-(8-amino-3-isopropyl-5-(4-(methylamino)cyclohex-1-en-1-yl)imidazo[1,5-a]pyrazin-1-yl)-3-fluorophenyl)-2,5-dichlorobenzenesulfonamide] gave an IC50 of 66 nM. In the case of `CNC1CC=C(c2cnc(N)c3c(-c4ccc(NC(=O)Nc5ccccc5)c5ccccc45)nc(C(C)C)n23)CC1` (centres unmarked) [Example 121, 1-(4-(8-Amino-3-isopropyl-5-(4-(methylamino)cyclohex-1-en-1-yl)imidazo[1,5-a]pyrazin-1-yl)naphthalen-1-yl)-3-phenylurea], the IC50 is reported as 89 nM.
